Reference: PubChem BioAssay (NCI)
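Compound exposure: 48 hours, 5 concentrations, 96-well plates. Abbreviation: GI50, concentration required for 50% inhibition of growth. TGI marks complete inhibition of growth.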

What was measured:
Assay in all cases: DTP human tumour cell line panel, 48 h
HCT-15 colon = test system: HCT-15 colon
HT29 colon = test system: HT29 colon
HS 578T breast = test system: HS 578T breast
HL-60(TB) leukemia = test system: HL-60(TB) leukemia
MDA-MB-468 breast = test system: MDA-MB-468 breast
KM12 colon = test system: KM12 colon
OVCAR-4 ovarian = test system: OVCAR-4 ovarian
SK-OV-3 ovarian = test system: SK-OV-3 ovarian
HCC-2998 colon = test system: HCC-2998 colon
NCI-H226 lung = test system: NCI-H226 lung
NCI-H23 lung = test system: NCI-H23 lung
A549 NSCLC = test system: A549 NSCLC
HOP-92 NSCLC = test system: HOP-92 NSCLC
SF-268 CNS = test system: SF-268 CNS
PC-3 prostate = test system: PC-3 prostate
SR leukemia = test system: SR leukemia
HOP-62 NSCLC = test system: HOP-62 NSCLC
UO-31 renal = test system: UO-31 renal
SK-MEL-28 melanoma = test system: SK-MEL-28 melanoma
NCI-H460 lung = test system: NCI-H460 lung
OVCAR-8 ovarian = test system: OVCAR-8 ovarian
CAKI-1 renal = test system: CAKI-1 renal
BT-549 breast = test system: BT-549 breast
UACC-62 melanoma = test system: UACC-62 melanoma
ACHN renal = test system: ACHN renal
SNB-19 CNS = test system: SNB-19 CNS
A498 renal = test system: A498 renal
T-47D breast = test system: T-47D breast
NCI-H522 lung = test system: NCI-H522 lung
SW-620 colon = test system: SW-620 colon
EKVX NSCLC = test system: EKVX NSCLC
RXF 393 renal = test system: RXF 393 renal
UACC-257 melanoma = test system: UACC-257 melanoma
TK-10 renal = test system: TK-10 renal
OVCAR-3 ovarian = test system: OVCAR-3 ovarian
M14 melanoma = test system: M14 melanoma
SK-MEL-2 melanoma = test system: SK-MEL-2 melanoma
MCF7 breast = test system: MCF7 breast
IGROV1 ovarian = test system: IGROV1 ovarian
K-562 leukemia = test system: K-562 leukemia
SF-539 CNS = test system: SF-539 CNS
SN12C renal = test system: SN12C renal
COLO 205 colon = test system: COLO 205 colon
SNB-75 CNS = test system: SNB-75 CNS
U251 CNS = test system: U251 CNS
RPMI-8226 leukemia = test system: RPMI-8226 leukemia
NCI/ADR-RES ovarian = test system: NCI/ADR-RES ovarian
MOLT-4 leukemia = test system: MOLT-4 leukemia
SK-MEL-5 melanoma = test system: SK-MEL-5 melanoma
MDA-MB-435 = test system: MDA-MB-435
OVCAR-5 ovarian = test system: OVCAR-5 ovarian
MALME-3M melanoma = test system: MALME-3M melanoma
MDA-MB-231 breast = test system: MDA-MB-231 breast
DU-145 prostate = test system: DU-145 prostate
SF-295 CNS = test system: SF-295 CNS
786-0 renal = test system: 786-0 renal

COc1ccc(-c2nc(Nc3ccccc3S(N)(=O)=O)c3ccccc3n2)cc1
GI50 (HCT-15 colon): 3.74 µM
TGI (HCT-15 colon): 13.4 µM
GI50 (HT29 colon): 4 µM
TGI (HT29 colon): 32.2 µM
GI50 (HS 578T breast): 4.28 µM
TGI (HS 578T breast): > 100 µM
GI50 (HL-60(TB) leukemia): > 100 µM
TGI (HL-60(TB) leukemia): > 100 µM
GI50 (MDA-MB-468 breast): 2.55 µM
TGI (MDA-MB-468 breast): 8.01 µM
GI50 (KM12 colon): 4.27 µM
TGI (KM12 colon): > 100 µM
GI50 (OVCAR-4 ovarian): 28.9 µM
TGI (OVCAR-4 ovarian): > 100 µM
GI50 (SK-OV-3 ovarian): 15.7 µM
TGI (SK-OV-3 ovarian): 71.3 µM
GI50 (HCC-2998 colon): 3.46 µM
TGI (HCC-2998 colon): 13.7 µM
GI50 (NCI-H226 lung): 2.04 µM
TGI (NCI-H226 lung): 7.13 µM
GI50 (NCI-H23 lung): 2.4 µM
TGI (NCI-H23 lung): 7.91 µM
GI50 (A549 NSCLC): 3.7 µM
TGI (A549 NSCLC): 30.9 µM
GI50 (HOP-92 NSCLC): 7.68 µM
TGI (HOP-92 NSCLC): 71.3 µM
GI50 (SF-268 CNS): 3.62 µM
TGI (SF-268 CNS): 32.1 µM
GI50 (PC-3 prostate): 7.21 µM
TGI (PC-3 prostate): > 100 µM
GI50 (SR leukemia): 6.28 µM
TGI (SR leukemia): > 100 µM
GI50 (HOP-62 NSCLC): 12.8 µM
TGI (HOP-62 NSCLC): 45.4 µM
GI50 (UO-31 renal): 9.42 µM
TGI (UO-31 renal): 33.4 µM
GI50 (SK-MEL-28 melanoma): 7.31 µM
TGI (SK-MEL-28 melanoma): > 100 µM
GI50 (NCI-H460 lung): 2.79 µM
TGI (NCI-H460 lung): 8.9 µM
GI50 (OVCAR-8 ovarian): 6.41 µM
TGI (OVCAR-8 ovarian): > 100 µM
GI50 (CAKI-1 renal): 3.93 µM
TGI (CAKI-1 renal): 42.5 µM
GI50 (BT-549 breast): 22.5 µM
TGI (BT-549 breast): > 100 µM
GI50 (UACC-62 melanoma): 8.84 µM
TGI (UACC-62 melanoma): > 100 µM
GI50 (ACHN renal): 6.39 µM
TGI (ACHN renal): 28.3 µM
GI50 (SNB-19 CNS): 18 µM
TGI (SNB-19 CNS): 63.3 µM
GI50 (A498 renal): 10.5 µM
TGI (A498 renal): 57.6 µM
GI50 (T-47D breast): 3.47 µM
TGI (T-47D breast): > 100 µM
GI50 (NCI-H522 lung): 4.19 µM
TGI (NCI-H522 lung): 25.7 µM
GI50 (SW-620 colon): 4.19 µM
TGI (SW-620 colon): 97.9 µM
GI50 (EKVX NSCLC): 5.35 µM
TGI (EKVX NSCLC): 28.4 µM
GI50 (RXF 393 renal): 1.91 µM
TGI (RXF 393 renal): 7.27 µM
GI50 (UACC-257 melanoma): > 100 µM
TGI (UACC-257 melanoma): > 100 µM
GI50 (TK-10 renal): 21.7 µM
TGI (TK-10 renal): 81.3 µM
GI50 (OVCAR-3 ovarian): 14.3 µM
TGI (OVCAR-3 ovarian): > 100 µM
GI50 (M14 melanoma): 6.06 µM
TGI (M14 melanoma): > 100 µM
GI50 (SK-MEL-2 melanoma): > 100 µM
TGI (SK-MEL-2 melanoma): > 100 µM
GI50 (MCF7 breast): 2.55 µM
TGI (MCF7 breast): 15.1 µM
GI50 (IGROV1 ovarian): 99.2 µM
TGI (IGROV1 ovarian): > 100 µM
GI50 (K-562 leukemia): 4.49 µM
TGI (K-562 leukemia): > 100 µM
GI50 (SF-539 CNS): 3.05 µM
TGI (SF-539 CNS): 12.2 µM
GI50 (SN12C renal): > 100 µM
TGI (SN12C renal): > 100 µM
GI50 (COLO 205 colon): 5.29 µM
TGI (COLO 205 colon): > 100 µM
GI50 (SNB-75 CNS): 2.32 µM
TGI (SNB-75 CNS): > 100 µM
GI50 (U251 CNS): 3.31 µM
TGI (U251 CNS): 14.2 µM
GI50 (RPMI-8226 leukemia): 4.35 µM
TGI (RPMI-8226 leukemia): > 100 µM
GI50 (NCI/ADR-RES ovarian): 3.19 µM
TGI (NCI/ADR-RES ovarian): 16.6 µM
GI50 (MOLT-4 leukemia): 4.41 µM
TGI (MOLT-4 leukemia): > 100 µM
GI50 (SK-MEL-5 melanoma): 2.76 µM
TGI (SK-MEL-5 melanoma): 10.4 µM
GI50 (MDA-MB-435): 4.36 µM
TGI (MDA-MB-435): > 100 µM
GI50 (OVCAR-5 ovarian): 46.1 µM
TGI (OVCAR-5 ovarian): > 100 µM
GI50 (MALME-3M melanoma): 5.24 µM
TGI (MALME-3M melanoma): 50.4 µM
GI50 (MDA-MB-231 breast): 2.14 µM
TGI (MDA-MB-231 breast): 5.77 µM
GI50 (DU-145 prostate): 4.67 µM
TGI (DU-145 prostate): 32.9 µM
GI50 (SF-295 CNS): 3 µM
TGI (SF-295 CNS): 13.2 µM
GI50 (786-0 renal): 3.75 µM
TGI (786-0 renal): 14.6 µM
